According to patent publication US11744819B2, “Antibiotic cannabinoid-terpene formulations” (priority 2019, dated 2023):
In brackets after ≈: the same amount, converted by molar mass. Several values for one entry are separate records, joined by “and”; a condition that tells them apart may be missing. Equal values may be shown once. Read-outs that look alike come from different tables or passages of the source.

How the values were obtained:
E. faecium 3303 = experiment: microbe, parasite or virus in culture; type: cell-based, Enterococcus faecium; settings: for MIC Alone / MIC: compound alone in checkerboard; for Max. fold change in MIC: decrease; for MIC: Enterococcus faecium, 3303, read-out: MIC Alone, E. faecium 3303
Description: In therapeutic applications, synergy between active ingredients occurs when an observed combined therapeutic effect is greater than the sum of therapeutic effects of individual active ingredients, or a new therapeutic effect is produced that the active ingredients could not produce alone. […] In this context, the enhancement of therapeutic effect may take the form of increased efficacy or potency and/or decreased adverse effects. The synergistic effect may be mediated in whole or in part by the pharmacokinetics and/or pharmacodynamics of the active ingredients in a subject, so that the amount and proportion of the ingredients in the formulation may be synergistic in vivo. This in vivo synergy may be effected with a formulation that includes the active ingredients in amounts and proportions that are also synergistic in in vitro assays of efficacy. As used herein, the term “synergistically effective amounts” accordingly refers to amounts that are synergistic in vivo and/or in vitro. A numeric quantification of synergy is often expressed as a fractional inhibitory concentration index (FICI), which represents the sum of the fractional inhibitory concentrations (FICs) of each drug tested, where the FIC is determined for each drug by dividing the minimum inhibitory concentration (MIC, the lowest concentration of the drug which prevents visible growth of the bacterium in a standard in vitro assay-standard colorometric assay based on resazurin) of each drug when used in combination by the MIC of each drug when used alone. In very general terms, a FICI lower or higher than 1 indicates positively correlated activity (at least additive or potentiation) or an absence of positive interactions, respectively. More definitively, synergy of two compounds may be conservatively defined as a FICI of ::::0.5 (see Odds, 2003; with additivity or potentiation corresponding to a FICI of >0.5 to ::::0.75; no interaction (indifference) corresponding to a FICI of >1 to ::::4; and antagonism corresponding to a FICI of >>4). Synergy of three compounds has been defined as a FICI of ::::1.0. (Berenbaum, 1978; Yu et al., 1980). To estimate the optimal concentrations in triple combinations, the optimal concentrations of trans-caryophyllene and cannabinoid were utilized in combination with a series of daptomycin dilutions.
Pre-cultures of bacteria growing in their corresponding liquid media (defined below) were diluted to an 00600 of 0.0025 and 100 μl was added to 100 μl of medium containing serial 2-fold dilutions of cannabinoid (cannabinoid stocks, in methanol or acetonitrile for acidic forms, were diluted in growth medium) in 96-well plates. Plates were then incubated for 20-24 h at 37° C., and growth was recorded as 00600 in a Thermo Scientific™ Varioskan™ Flash Multimode Reader.
Method for Tables 4-7. Interaction of Cannabinoids CBC, CBD and CBG with Terpenes and Daptomycin:
FICI values was determined in a 96 well checkerboard format using the MIC assay for cannabinoids (compound A), terpenes (compound B), and daptomycin (compound C) alone and in combinations. Terpene stocks were prepared in DMSO and diluted in the growth medium. The fractional inhibitory concentration for each compound was calculated as follows: FICA=(MIC of compound A in the presence of compound B)/(MIC of compound A alone). Similarly, the FICs for compounds Band C were calculated. The FICI was calculated as FICA plus FICs plus FICc.

[1] = system: E. faecium strains 3303, 69C6, 58C9 and 55A6; experiment: Kill curves (CFU by serial dilution); type: cell-based, Enterococcus faecium; settings: for bactericidal activity (viability, CFU): cannabinoid alone, 1x-4x MIC, planktonic E. faecium; for growth and CFU in combination with daptomycin: ½×MIC of cannabinoid with 1×-⅛×MIC of daptomycin, strains 3303, 58C9, 55A6
[2] = system: Enterococcus faecium 33D3; settings: for MIC: clinical enterococcal strain 3303
[3] = system: E. faecium clinical isolate 69C6 (vancomycin resistant)
[4] = system: E. faecium clinical isolate 58C9 (vancomycin and daptomycin resistant); settings: for MIC: clinical enterococcal strain 58C9, vancomycin and daptomycin resistant
[5] = system: E. faecium clinical isolate 55A6 (vancomycin and daptomycin resistant)
[6] = system: Staphylococcus aureus MRSA; experiment: microbe, parasite or virus in culture; type: cell-based
[7] = system: Streptococcus pyogenes ATCC 51878; experiment: MIC determination; type: cell-based; settings: ATCC51878
Enterococcus faecalis = experiment: MIC determination; type: cell-based
[8] = system: Staphylococcus epidermidis ATCC 14990; experiment: MIC determination; type: cell-based; settings: ATCC14990
[9] = system: Staphylococcus epidermidis ATCC 12228; experiment: MIC determination; type: cell-based; settings: ATCC12228
[10] = system: Mycobacterium abscessus ATCC 19977; experiment: MIC determination (resazurin); type: cell-based; settings: Mycobacteroides abscessus, ATCC19977
[11] = system: Mycobacterium tuberculosis H37Rv; experiment: MIC determination (PrestoBlue); type: cell-based; settings: Mycobacterium tuberculosis, H37RV
[12] = system: Enterococcus faecium 33D3; experiment: microbe, parasite or virus in culture
[13] = system: E. faecium clinical isolate 69C6 (vancomycin resistant); experiment: microbe, parasite or virus in culture; settings: Enterococcus faecium
[14] = system: E. faecium clinical isolate 58C9 (vancomycin and daptomycin resistant); experiment: microbe, parasite or virus in culture; settings: Enterococcus faecium
[15] = system: E. faecium clinical isolate 55A6 (vancomycin and daptomycin resistant); experiment: microbe, parasite or virus in culture; settings: Enterococcus faecium
[16] = E. faecium 3303, pairwise, with CBC
[17] = E. faecium 3303, pairwise, with CBD
[18] = E. faecium 3303, pairwise, with CBG
[19] = E. faecium 3303, pairwise, with trans-caryophyllene
[20] = E. faecium 3303, text b61, Table 5
[21] = E. faecium 3303, triple, with CBC and trans-caryophyllene
[22] = E. faecium 3303, triple, with CBG and trans-caryophyllene
[23] = E. faecium 3303, pairwise, with daptomycin
[24] = E. faecium 3303, triple, with daptomycin and trans-caryophyllene
[25] = 33D3, Enterococcus faecium 33D3 (Table 1)
[26] = 33D3, clinical enterococcal strain 3303

CCCCCCCCCC(=O)N[C@@H](Cc1c[nH]c2ccccc12)C(=O)N[C@H](CC(N)=O)C(=O)N[C@@H](CC(=O)O)C(=O)N[C@@H]1C(=O)NCC(=O)N[C@@H](CCCN)C(=O)N[C@@H](CC(=O)O)C(=O)N[C@H](C)C(=O)N[C@@H](CC(=O)O)C(=O)NCC(=O)N[C@H](CO)C(=O)N[C@@H]([C@H](C)CC(=O)O)C(=O)N[C@@H](CC(=O)c2ccccc2N)C(=O)O[C@@H]1C [Daptomycin, daptomycin, reference compound]
MIC Alone (E. faecium 3303; E. faecium 3303): 8 µg/mL
MIC Alone (E. faecium 3303; E. faecium 3303, listed as daptomycin): 4 µg/mL
MIC In combination (E. faecium 3303; [16]): 0.03125 µg/mL
Max. fold change in MIC (E. faecium 3303; [16]): 128 l fold
Max. fold change in MIC (E. faecium 3303; E. faecium 3303, pairwise, with CBC, listed as daptomycin): 128 fold
MIC In combination (E. faecium 3303; [17]): 0.25 µg/mL
Max. fold change in MIC (E. faecium 3303; [17]): 16″′ fold
MIC In combination (E. faecium 3303; [18]): 0.25 µg/mL
Max. fold change in MIC (E. faecium 3303; [18]): 32″′ fold
MIC In combination (E. faecium 3303; [19]): 0.5 µg/mL
Max. fold change in MIC (E. faecium 3303; [19]): 8 l fold and 8″′ fold
MIC of daptomycin (alone) (E. faecium 3303; [20]): 8 µg/mL
MIC of daptomycin in the presence of CBO and trans caryophyllene (E. faecium 3303; [20]): 0.03 µg/mL
MIC In combination (E. faecium 3303; [21]): 4 µg/mL
Max. fold change in MIC (E. faecium 3303; [21]): 2 l fold
MIC In combination (E. faecium 3303; E. faecium 3303, triple, with CBD and trans-caryophyllene): 0.03 µg/mL
Max. fold change in MIC (E. faecium 3303; E. faecium 3303, triple, with CBD and trans-caryophyllene, listed as daptomycin): 256 fold
MIC In combination (E. faecium 3303; [22]): 2 µg/mL
Max. fold change in MIC (E. faecium 3303; [22]): 4 l fold
reduction in CFU ([1]; daptomycin alone at 1×MIC (growth inhibited)): no reduction in CFU
inhibition of growth ([1]; single agent at ½×MIC, all strains (3303, 58C9, 55A6)): effectively no inhibition of growth
MIC [2]: 2 µg/mL (≈ 1.23 µM)
MIC ([2]; listed as daptomycin): 1 µg/mL (≈ 0.617 µM)
MIC ([3]; clinical enterococcal strain 69C6, vancomycin resistant): 1 µg/mL (≈ 0.617 µM)
MIC [4]: 8 µg/mL (≈ 4.94 µM)
MIC ([4]; listed as daptomycin): 4 µg/mL (≈ 2.47 µM)
MIC ([5]; clinical enterococcal strain 55A6, vancomycin and daptomycin resistant): 8 µg/mL (≈ 4.94 µM)

CCCCCc1cc(O)c2c(c1)OC(C)(CCC=C(C)C)C=C2 (stereo not drawn) [CBC, cannabichromene]
MIC [6]: 4 µg/mL (≈ 12.7 µM)
MIC ([7]; Streptococcus pyogenes): 1 µg/mL (≈ 3.18 µM)
MIC (Enterococcus faecalis): 2 µg/mL (≈ 6.36 µM)
MIC ([8]; Staphylococcus epidermidis): 4 µg/mL (≈ 12.7 µM)
MIC ([9]; Staphylococcus epidermidis): 4 µg/mL (≈ 12.7 µM)
MIC [10]: 4 µg/mL (≈ 12.7 µM)
MIC ([11]; Media 7H9, read-out: MIC): 8 µg/mL (≈ 25.4 µM)
MIC ([11]; Media PB, read-out: MIC): 4 µg/mL (≈ 12.7 µM)
MIC Alone (E. faecium 3303; E. faecium 3303): 2 µg/mL
MIC In combination (E. faecium 3303; [23]): 0.5 µg/mL
Max. fold change in MIC (E. faecium 3303; [23]): 4 l fold
MIC In combination (E. faecium 3303; [19]): 0.125 µg/mL
Max. fold change in MIC (E. faecium 3303; [19]): 16 l fold
MIC In combination (E. faecium 3303; [24]): 0.25 µg/mL
Max. fold change in MIC (E. faecium 3303; [24]): 8 l fold
MIC (E. faecium 3303): 1 µg/mL
kinetics of E. faecium killing ([1]; at equal concentrations of CBD, CBG, or CBC, FIG. 1): faster than for CBO
bactericidal activity (viability, CFU) ([1]; FIG. 1): bactericidal
growth and CFU in combination with daptomycin [1]: significantly inhibited growth of all strains and reduced CFU
Fold reduction in daptomycin MIC in combination with the cannabinoid ([2]; E. faecium isolate 3303): 128 Fold
Fold reduction in daptomycin MIC in combination with the cannabinoid ([3]; E. faecium isolate 69C6): 32 Fold
Fold reduction in daptomycin MIC in combination with the cannabinoid ([4]; E. faecium isolate 58c9): 8 Fold
Fold reduction in daptomycin MIC in combination with the cannabinoid ([5]; E. faecium isolate 55a6): 512 Fold
MIC [12, 25]: 1 to 2 µg/mL (≈ 3.18 to 6.36 µM)
MIC [12, 26]: 1 µg/mL (≈ 3.18 µM)
MIC [13]: 1 µg/mL (≈ 3.18 µM)
MIC [14]: 1 µg/mL (≈ 3.18 µM)
MIC [15]: 1 µg/mL (≈ 3.18 µM)

C=C(C)[C@@H]1CCC(C)=C[C@H]1c1c(O)cc(CCCCC)cc1O [CBD, cannabidiol, reference compound]
MIC ([6]; read-out: MIC): 2 µg/mL (≈ 6.36 µM)
MIC ([7]; Streptococcus pyogenes ATCC 51878, read-out: MIC): 1 µg/mL (≈ 3.18 µM)
MIC (Enterococcus faecalis; read-out: MIC): 2 µg/mL (≈ 6.36 µM)
MIC ([8]; Staphylococcus epidermidis ATCC 14990, read-out: MIC): 2 µg/mL (≈ 6.36 µM)
MIC ([9]; Staphylococcus epidermidis ATCC 12228, read-out: MIC): 2 µg/mL (≈ 6.36 µM)
MIC ([10]; Mycobacterium abscessus ATCC 19977, read-out: MIC): 16 µg/mL (≈ 50.9 µM)
MIC ([11]; Media 7H9, read-out: MIC): 16 µg/mL (≈ 50.9 µM)
MIC ([11]; Media PB, read-out: MIC): 4 µg/mL (≈ 12.7 µM)
MIC Alone (E. faecium 3303; E. faecium 3303): 2 µg/mL
MIC In combination (E. faecium 3303; [23]): 1 µg/mL
Max. fold change in MIC (E. faecium 3303; [23]): 4″′ fold
MIC In combination (E. faecium 3303; [19]): 0.125 µg/mL
Max. fold change in MIC (E. faecium 3303; [19]): 16″′ fold
MIC In combination (E. faecium 3303; [24]): 0.5 µg/mL
Max. fold change in MIC (E. faecium 3303; [24]): 4 fold
MIC (E. faecium 3303): 4 µg/mL
bactericidal activity (viability, CFU) ([1]; FIG. 1): bactericidal
growth and CFU in combination with daptomycin [1]: significantly inhibited growth of all strains and reduced CFU
MIC [12, 25]: 1 to 2 µg/mL (≈ 3.18 to 6.36 µM)
MIC [12, 26]: 1 µg/mL (≈ 3.18 µM)
MIC [13]: 1 µg/mL (≈ 3.18 µM)
MIC [14]: 1 µg/mL (≈ 3.18 µM)
MIC [15]: 2 µg/mL (≈ 6.36 µM)
